“And” between values parts separate entries of the source, which are not always exact repeats. Equal values may be shown once.
Test system: UA196 worms (human αS and GFP in DA neurons)
Assay: Confocal counting of healthy DA neurons in UA196 worms, early treatment (day two and four)
Format: in vivo, C. elegans
Set-up: key to Total neurons, Average: healthy DA neurons per replicate of 10 worms, max 60
Excerpt: The aggregation of αS is associated with the neurodegeneration of DA neurons, which is a pathological hallmark of PD. Next, we investigated the neuroprotective effect of NS163 on the intraneuronal αS aggregation-mediated degeneration of DA neurons in a well-established C. elegans PD model (UA196)[20],[72]–[75]. The UA196 worms express both human αS and GFP in DA neurons under the control of the dopamine promoter genotype (Pdat-1::GFP; Pdat-1::α-SYN). The expression and aggregation of αS in six DA neurons that are located within the anterior region of worms lead to progressive neurodegeneration characteristics during the aging of UA196 worms. This strain has been used to gain insights into the PD-associated mechanisms and to assess the neuroprotective effect of ligands against the intraneuronal αS aggregation[20],[72]–[75]. During the aging of worms, αS protein aggregates and degenerates the DA neurons as represented by the gradual loss of cell bodies as observed from day 3 (Fig. 7b, c, filled red arrow) to day 5 (Fig. 7d, e, empty red arrow), to day 15 (Fig. 7f, g, empty red arrow). Additionally, there was fragmentation and blebbing of neurites from day 3 (Fig. 7b, c, filled yellow arrow) to day 5 (Fig. 7d, e, empty yellow arrow), which has been observed by others as well[72]–[75]. The maximum number of healthy DA neurons in one UA196 worm is six on day 3 (no degeneration) and we used 10 worms/biological replicate, which makes a total of 60 healthy DA neurons/biological replicate. Therefore, for each study, the maximum number of healthy DA neurons in UA196 worms is 60 as an average for each biological replicate. […] None of the UA196 worms had all six healthy DA neurons on day 5 (Fig. 7k, -NS163) and there was a gradual decline in the total number of healthy DA neurons in UA196 worms (Supplementary Fig. 26a). […] The average number of intact DA neurons in UA196 worms treated with NS163 was 59.5, 58.7, and 57.3 on day five, 10, and 15, respectively (Fig. 7j, red line). Additionally, the total number of treated worms with all six intact DA neurons were 57, 52, and 47 on day 5, 10, and 15, respectively (Fig. 7k, Supplementary Fig. 26b).
In UA196 strain, human αS and GFP are expressed in DA neurons under control of a dopamine transporter-specific promoter [Pdat-1::α-syn+Pdat-1::GFP], which results in age-dependent neurodegeneration of six DA neurons.
This experiment was performed based on previously described protocols with slight modifications[24],[65],[88]. Briefly, the worm strains (NL5901 or UA196) were bleached at the same time and the eggs were incubated on PLATE 1. On day two, the worms were divided into two batches. One half of the worms were transferred (using M9 buffer) on PLATE 2 (without ligand) and the second half of the worms were transferred to PLATE 3 (with ligand). The concentration of the ligands varied from 10–50 µM as described in the main manuscript. The worms were incubated on PLATE 2 or PLATE 3 up to day 3 at 20 °C in an incubator with constant humidity. On day four, the ligand (10–50 µM, stock conc. = 10 mM in DMSO, DMSO from 0.1–0.5%, v/v) was added again to PLATE 3. For confocal imaging, at least 10 worms per condition (from PLATE 2 or PLATE 3) were transferred to a cover slide containing an anesthetic (40 mM sodium azide), and mounted on glass microscope slide containing 2% agarose pads using a reported protocol. The images of the worms were collected using an Olympus Fluoview FV3000 confocal/2-photon microscope (40 x Plan-Apo/1.3 NA objective with DIC capability) and processed using the OlympusViewer in ImageJ software. For NL5901 worms, the inclusions of the aggregated αS (GFP puncta in the muscle cells) were manually counted (10 worms per condition) for the five-day imaging period (day 5 to day 9) for PLATE 2 or PLATE 3. […]

[1] = UA196+NS132, Day 3, 10 per trial
[2] = UA196+NS132, Day 5, 10 per trial
[3] = UA196+NS132, Day 10, 10 per trial
[4] = UA196+NS132, Day 15, 10 per trial

Structure (SMILES): Cc1ccc(NC(=O)c2ccc(NC(=O)c3ccc([N+](=O)[O-])c(NCCc4c[nH]c5ccccc45)n3)c(NCC3CCCCC3)n2)c(OCC(=O)O)n1 [NS132]
- number of intact DA neurons in UA196 worms (max. 60) (50 µM ligand on day two and four, day 15 (untreated 13.5)): 51
- Total neurons, Average (UA196+NS132, Day 3): 59.5
- Number of worms with 1 neurons [1]: 0
- Number of worms with 2 neurons [1]: 0
- Number of worms with 6 neurons [1]: 9 and 10
- number of worms with 3 neurons [1]: 0
- number of worms with 4 neurons [1]: 0
- Total neurons, Average (UA196+NS132, Day 5): 55.8333
- Number of worms with 1 neurons [2]: 0
- Number of worms with 2 neurons [2]: 0
- Number of worms with 5 neurons [2]: 2 and 3 and 4
- Number of worms with 6 neurons [2]: 7 and 8 and 6 and 5
- number of worms with 3 neurons [2]: 0
- Total neurons, Average (UA196+NS132, Day 10): 53.1667
- Number of worms with 1 neurons [3]: 0
- Number of worms with 2 neurons [3]: 0
- Number of worms with 6 neurons [3]: 6 and 4 and 5
- number of worms with 3 neurons [3]: 0
- Total neurons, Average (UA196+NS132, Day 15): 51
- Number of worms with 1 neurons [4]: 0
- Number of worms with 2 neurons [4]: 0
- Number of worms with 5 neurons [4]: 5 and 4 and 3
- Number of worms with 6 neurons [4]: 3 and 4 and 5
- Total neurons, UA196 worms+Ligands (UA196 worms+Ligands, one value per trial, day not given for ligand (controls: Day 3, Day 15)): 53 and 48 and 50 and 54 and 49 and 52

Reference: paper PMC11061149, “Protein mimetic 2D FAST rescues alpha synuclein aggregation mediated early and post disease Parkinson’s phenotypes” (Nature Communications, 2024)
